Test results reported in patent publication US20080153896A1, “Polymorphic Forms of an HMG-CoA Reductase Inhibitor and Uses Thereof” (priority 2006, published 2008).

Assay: Stability (integrity) testing of amorphous and polymorphic form under storage conditions, RP-HPLC
Assay type: physicochemical
Parameters: key to Impurity RRT 0.738 / Impurity RRT 0.949 / Impurity RRT 1.050 / Impurity RRT 1.550 / Impurity RRT 0.136 / Impurity RRT 0.720 / Impurity RRT 0.706 / Impurity RRT 1.18 / Impurity RRT 1.826: % of total UV absorption (HPLC peak area); Impurity RRT 1.104 / Impurity RRT 1.698: unit not given beside the values
Settings: Batch 3 PP00205
In short: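 Amorphous form and three batches of polymorphic Form I of the hemi calcium salt were stored under different atmospheric conditions. Purity measured by RP-HPLC on C18 with UV detection, drug as percent of total absorption; total impurity from summed impurity peak areas, impurities identified by relative retention time.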

Assay (5° C. 2M): 98.21 % W/W
Description (5° C. 2M): White
Highest Impurity (5° C. 2M): 0.402
Impurity RRT 0.935 (5° C. 2M): 0.402
Impurity RRT 1.045 (5° C. 2M): 0.340
Impurity RRT 1.095 (5° C. 2M): 0.155
Impurity RRT 1.44 (5° C. 2M): 0.203
Impurity RRT 1.590 (5° C. 2M): 0.096
Impurity RRT 1.640 (5° C. 2M): 0.064
Impurity RRT 1.698 (5° C. 2M): 0.067
Total Impurity (5° C. 2M): 1.33
Water (5° C. 2M): 4.02 % W/W
Assay (5° C. 3M): 98.20 % W/W
Description (5° C. 3M): White
Highest Impurity (5° C. 3M): 0.436
Impurity RRT 0.935 (5° C. 3M): 0.416
Impurity RRT 1.045 (5° C. 3M): 0.436
Impurity RRT 1.095 (5° C. 3M): 0.155
Impurity RRT 1.44 (5° C. 3M): 0.203
Impurity RRT 1.590 (5° C. 3M): 0.093
Impurity RRT 1.640 (5° C. 3M): 0.061
Impurity RRT 1.698 (5° C. 3M): 0.065
Total Impurity (5° C. 3M): 1.43
Water (5° C. 3M): 4.69 % W/W
Assay (5° C. 4M): 98.22 % W/W
Description (5° C. 4M): White
Highest Impurity (5° C. 4M): 0.381
Impurity RRT 0.138 (5° C. 4M): 0.219
Impurity RRT 0.935 (5° C. 4M): 0.381
Impurity RRT 1.045 (5° C. 4M): 0.324
Impurity RRT 1.095 (5° C. 4M): 0.128
Impurity RRT 1.449 (5° C. 4M): 0.220
Impurity RRT 1.596 (5° C. 4M): 0.077
Impurity RRT 1.640 (5° C. 4M): 0.081
Impurity RRT 1.698 (5° C. 4M): 0.057
Total Impurity (5° C. 4M): 1.487
Water (5° C. 4M): 5.08 % W/W
Assay (5° C. 5M): 98.53 % W/W
Description (5° C. 5M): White
Highest Impurity (5° C. 5M): 0.410
Impurity RRT 0.138 (5° C. 5M): 0.231
Impurity RRT 0.935 (5° C. 5M): 0.410
Impurity RRT 1.045 (5° C. 5M): 0.321
Impurity RRT 1.095 (5° C. 5M): 0.140
Impurity RRT 1.449 (5° C. 5M): 0.198
Impurity RRT 1.596 (5° C. 5M): 0.075
Impurity RRT 1.640 (5° C. 5M): 0.049
Impurity RRT 1.698 (5° C. 5M): 0.058
Total Impurity (5° C. 5M): 1.482
Water (5° C. 5M): 4.79 % W/W
Assay (5° C. 6M): 98.15 % W/W
Description (5° C. 6M): White
Highest Impurity (5° C. 6M): 0.368
Impurity RRT 0.138 (5° C. 6M): 0.256
Impurity RRT 0.935 (5° C. 6M): 0.368
Impurity RRT 1.045 (5° C. 6M): 0.315
Impurity RRT 1.095 (5° C. 6M): 0.165
Impurity RRT 1.449 (5° C. 6M): 0.211
Impurity RRT 1.596 (5° C. 6M): 0.081
Impurity RRT 1.640 (5° C. 6M): 0.049
Impurity RRT 1.698 (5° C. 6M): 0.050
Total Impurity (5° C. 6M): 1.495
Water (5° C. 6M): 4.78 % W/W
Assay (5° C. 9M): 98.14 % W/W
Description (5° C. 9M): White
Highest Impurity (5° C. 9M): 0.390
Impurity RRT 0.138 (5° C. 9M): 0.222
Impurity RRT 0.935 (5° C. 9M): 0.390
Impurity RRT 1.045 (5° C. 9M): 0.372
Impurity RRT 1.095 (5° C. 9M): 0.142
Impurity RRT 1.449 (5° C. 9M): 0.174
Impurity RRT 1.596 (5° C. 9M): 0.088
Impurity RRT 1.640 (5° C. 9M): 0.049
Impurity RRT 1.698 (5° C. 9M): 0.053
Total Impurity (5° C. 9M): 1.490
Water (5° C. 9M): 5.39 % W/W
Assay (5° C. 12M): 98.31 % W/W
Description (5° C. 12M): White
Highest Impurity (5° C. 12M): 0.438
Impurity RRT 0.935 (5° C. 12M): 0.438
Impurity RRT 1.045 (5° C. 12M): 0.383
Impurity RRT 1.095 (5° C. 12M): 0.177
Impurity RRT 1.449 (5° C. 12M): 0.217
Impurity RRT 1.596 (5° C. 12M): 0.090
Impurity RRT 1.640 (5° C. 12M): 0.066
Impurity RRT 1.698 (5° C. 12M): 0.066
Total Impurity (5° C. 12M): 1.437
Water (5° C. 12M): 5.97 % W/W
Assay (5° C./1M): 98.26 % W/W
Description (5° C./1M): White
Highest Impurity (5° C./1M): 0.421
Impurity RRT 0.706 (5° C./1M): 0.042
Impurity RRT 0.935 (5° C./1M): 0.421
Impurity RRT 1.045 (5° C./1M): 0.352
Impurity RRT 1.095 (5° C./1M): 0.165
Impurity RRT 1.44 (5° C./1M): 0.21
Impurity RRT 1.590 (5° C./1M): 0.100
Impurity RRT 1.640 (5° C./1M): 0.074
Impurity RRT 1.698 (5° C./1M): 0.071
Total Impurity (5° C./1M): 1.455
Water (5° C./1M): 4.77 % W/W
Assay (25° C./60% RH 3M): 98.11 % W/W
Description (25° C./60% RH 3M): White
Highest Impurity (25° C./60% RH 3M): 0.437
Impurity RRT 0.935 (25° C./60% RH 3M): 0.437
Impurity RRT 1.045 (25° C./60% RH 3M): 0.372
Impurity RRT 1.095 (25° C./60% RH 3M): 0.164
Impurity RRT 1.44 (25° C./60% RH 3M): 0.225
Impurity RRT 1.590 (25° C./60% RH 3M): 0.094
Impurity RRT 1.640 (25° C./60% RH 3M): 0.062
Impurity RRT 1.698 (25° C./60% RH 3M): 0.065
Total Impurity (25° C./60% RH 3M): 1.42
Water (25° C./60% RH 3M): 4.65 % W/W
Assay (25° C./60% RH 6M): 98.10 % W/W
Description (25° C./60% RH 6M): White
Highest Impurity (25° C./60% RH 6M): 0.476
Impurity RRT 0.935 (25° C./60% RH 6M): 0.476
Impurity RRT 1.045 (25° C./60% RH 6M): 0.324
Impurity RRT 1.095 (25° C./60% RH 6M): 0.191
Impurity RRT 1.449 (25° C./60% RH 6M): 0.196
Impurity RRT 1.596 (25° C./60% RH 6M): 0.071
Impurity RRT 1.640 (25° C./60% RH 6M): 0.061
Impurity RRT 1.698 (25° C./60% RH 6M): 0.061
Total Impurity (25° C./60% RH 6M): 1.380
Water (25° C./60% RH 6M): 4.96 % W/W
Assay (25° C./60% RH 9M): 97.95 % W/W
Description (25° C./60% RH 9M): White
Highest Impurity (25° C./60% RH 9M): 0.408
Impurity RRT 0.935 (25° C./60% RH 9M): 0.408
Impurity RRT 1.045 (25° C./60% RH 9M): 0.361
Impurity RRT 1.095 (25° C./60% RH 9M): 0.187
Impurity RRT 1.449 (25° C./60% RH 9M): 0.225
Impurity RRT 1.596 (25° C./60% RH 9M): 0.096
Impurity RRT 1.640 (25° C./60% RH 9M): 0.062
Impurity RRT 1.698 (25° C./60% RH 9M): 0.055
Impurity RRT 1.826 (25° C./60% RH 9M): 0.053
Total Impurity (25° C./60% RH 9M): 1.477
Water (25° C./60% RH 9M): 5.36 % W/W
Assay (25° C./60% RH 12M): 98.10 % W/W
Description (25° C./60% RH 12M): White
Highest Impurity (25° C./60% RH 12M): 0.399
Impurity RRT 0.138 (25° C./60% RH 12M): 0.204
Impurity RRT 0.935 (25° C./60% RH 12M): 0.399
SMILES: CC(C)c1c(C(=O)Nc2ccc(CO)cc2)c(-c2ccccc2)c(-c2ccc(F)cc2)n1CC[C@@H](O)C[C@@H](O)CC(=O)[O-].CC(C)c1c(C(=O)Nc2ccc(CO)cc2)c(-c2ccccc2)c(-c2ccc(F)cc2)n1CC[C@@H](O)C[C@@H](O)CC(=O)[O-].[Ca+2] [Form I, (3R,5)-7-[2-(4-fluorophenyl)-5-isopropyl-3-phenyl-4-[(4-hydroxymethylphenylamino)carbonyl]-pyrrol-1-yl]-3,5-dihydroxy-heptanoic acid, hemi calcium salt]
